Holding throughout (experiment): relative viability (nuclei count vs DMSO), 5 days (fraction); higher = more cells survive
Compound in the assay “Ispinesib + Palbociclib”: Cc1ccc(C(=O)N(CCCN)[C@@H](c2nc3cc(Cl)ccc3c(=O)n2Cc2ccccc2)C(C)C)cc1 [Ispinesib] + CC(=O)c1c(C)c2cnc(Nc3ccc(N4CCNCC4)cn3)nc2n(C2CCCC2)c1=O [Palbociclib] (partner 0.5 µM)
Summed up: (§1)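 Nuclei were stained with Hoechst during a one-step fixation (final 0.05% Triton X-100, 1% formaldehyde, 1 ug/ml Hoechst) carried out 5 days after dosing, then counted on 4× images. The cells, lung cancer lines in 1536-well plates, had been dosed by pin tool the day after seeding with one drug alone or a fixed anchor-drug dose plus five library-drug doses (not always all listed) in √10 steps. Relative viability is the nuclei count in treated wells divided by that in vehicle wells, and each value is the median of duplicate plates.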

Compound in the assay “Ispinesib + Vorinostat”: Cc1ccc(C(=O)N(CCCN)[C@@H](c2nc3cc(Cl)ccc3c(=O)n2Cc2ccccc2)C(C)C)cc1 [Ispinesib] + O=C(CCCCCCC(=O)Nc1ccccc1)NO [Vorinostat] (partner 1 µM)
The method in brief: as §1

Compound in the assay “Ispinesib + AZD7762”: Cc1ccc(C(=O)N(CCCN)[C@@H](c2nc3cc(Cl)ccc3c(=O)n2Cc2ccccc2)C(C)C)cc1 [Ispinesib] + NC(=O)Nc1cc(-c2cccc(F)c2)sc1C(=O)N[C@H]1CCCNC1 [AZD7762] (partner 0.2 µM)
Summed up: as §1

Compound in the assay “Linsitinib + Navitoclax”: C[C@]1(O)C[C@@H](c2nc(-c3ccc4ccc(-c5ccccc5)nc4c3)c3c(N)nccn32)C1 [Linsitinib] + CC1(C)CCC(c2ccc(Cl)cc2)=C(CN2CCN(c3ccc(C(=O)NS(=O)(=O)c4ccc(N[C@H](CCN5CCOCC5)CSc5ccccc5)c(S(=O)(=O)C(F)(F)F)c4)cc3)CC2)C1 [Navitoclax] (partner 0.5 µM)
Summed up: as §1

With NCI-H1666, the relative viability was 0.736 with Ispinesib + Palbociclib (first compound 0.001 µM); 0.63 with Ispinesib + Palbociclib (first compound 0.003162 µM); 0.679 with Ispinesib + Palbociclib (first compound 0.01 µM); 0.705 with Ispinesib + Palbociclib (first compound 0.03162 µM); 0.52 in the assay with Ispinesib + Palbociclib (first compound 0.1 µM); 1.11 with Ispinesib + Vorinostat (first compound 0.001 µM). The relative viability turned out to be 1.05 with Ispinesib + Vorinostat (first compound 0.003162 µM); 1.08 with Ispinesib + Vorinostat (first compound 0.01 µM); 1.07 with Ispinesib + Vorinostat (first compound 0.03162 µM); 0.84 with Ispinesib + Vorinostat (first compound 0.1 µM); 0.872 with Ispinesib + AZD7762 (first compound 0.001 µM); 0.922 in the assay with Ispinesib + AZD7762 (first compound 0.003162 µM). Besides, the relative viability is 0.898 with Ispinesib + AZD7762 (first compound 0.01 µM); 0.699 with Ispinesib + AZD7762 (first compound 0.03162 µM); 0.641 with Ispinesib + AZD7762 (first compound 0.1 µM); 0.994 in the assay with Linsitinib + Navitoclax (first compound 0.01 µM); 0.867 in the assay with Linsitinib + Navitoclax (first compound 0.03162 µM); 0.939 with Linsitinib + Navitoclax (first compound 0.1 µM). Also, the values for the relative viability with Linsitinib + Navitoclax (first compound 0.3162 µM) and in the assay with Linsitinib + Navitoclax (first compound 1 µM) were 0.549 and 0.646, respectively.
In the case of H3255, the relative viability with Ispinesib + Palbociclib (first compound 0.001 µM) was 0.309; in the assay with Ispinesib + Palbociclib (first compound 0.003162 µM) it was 0.339; with Ispinesib + Palbociclib (first compound 0.01 µM) it was 0.347; with Ispinesib + Palbociclib (first compound 0.03162 µM), 0.294; in the assay with Ispinesib + Palbociclib (first compound 0.1 µM), 0.291; with Ispinesib + Vorinostat (first compound 0.001 µM), 0.79. The relative viability is 1.09 with Ispinesib + Vorinostat (first compound 0.003162 µM); 0.804 with Ispinesib + Vorinostat (first compound 0.01 µM); 0.479 in the assay with Ispinesib + Vorinostat (first compound 0.03162 µM); 0.413 with Ispinesib + Vorinostat (first compound 0.1 µM); 0.94 with Ispinesib + AZD7762 (first compound 0.001 µM); 1.06 with Ispinesib + AZD7762 (first compound 0.003162 µM). Further, the relative viability with Ispinesib + AZD7762 (first compound 0.01 µM) is 0.89; with Ispinesib + AZD7762 (first compound 0.03162 µM), 0.623; with Ispinesib + AZD7762 (first compound 0.1 µM), 0.311; in the assay with Linsitinib + Navitoclax (first compound 0.01 µM), 0.615; with Linsitinib + Navitoclax (first compound 0.03162 µM), 0.504; in the assay with Linsitinib + Navitoclax (first compound 0.1 µM), 0.499. Further, the relative viability with Linsitinib + Navitoclax (first compound 0.3162 µM) was determined as 0.433; with Linsitinib + Navitoclax (first compound 1 µM) it was 0.395.
For NCI-H2347, the relative viability came out at 0.406 in the assay with Ispinesib + Palbociclib (first compound 0.001 µM); 0.388 with Ispinesib + Palbociclib (first compound 0.003162 µM); 0.423 with Ispinesib + Palbociclib (first compound 0.01 µM); 0.395 with Ispinesib + Palbociclib (first compound 0.03162 µM); 0.419 with Ispinesib + Palbociclib (first compound 0.1 µM); 0.562 in the assay with Ispinesib + Vorinostat (first compound 0.001 µM). Also, the relative viability came out at 0.617 in the assay with Ispinesib + Vorinostat (first compound 0.003162 µM); 0.738 with Ispinesib + Vorinostat (first compound 0.01 µM); 0.625 in the assay with Ispinesib + Vorinostat (first compound 0.03162 µM); 0.471 with Ispinesib + Vorinostat (first compound 0.1 µM); 0.558 in the assay with Ispinesib + AZD7762 (first compound 0.001 µM); 0.856 in the assay with Ispinesib + AZD7762 (first compound 0.003162 µM). Moreover, the relative viability was found to be 0.745 with Ispinesib + AZD7762 (first compound 0.01 µM); 0.701 in the assay with Ispinesib + AZD7762 (first compound 0.03162 µM); 0.636 in the assay with Ispinesib + AZD7762 (first compound 0.1 µM); 0.731 with Linsitinib + Navitoclax (first compound 0.01 µM); 0.915 with Linsitinib + Navitoclax (first compound 0.03162 µM); 0.717 in the assay with Linsitinib + Navitoclax (first compound 0.1 µM). Further, the relative viability with Linsitinib + Navitoclax (first compound 0.3162 µM) was 0.533; in the assay with Linsitinib + Navitoclax (first compound 1 µM), 0.754.
Turning to LK-2, the relative viability with Ispinesib + Palbociclib (first compound 0.001 µM) turned out to be 0.687; with Ispinesib + Palbociclib (first compound 0.003162 µM), 0.821; in the assay with Ispinesib + Palbociclib (first compound 0.01 µM), 0.824; with Ispinesib + Palbociclib (first compound 0.03162 µM), 0.743; with Ispinesib + Palbociclib (first compound 0.1 µM) it was 0.188; in the assay with Ispinesib + Vorinostat (first compound 0.001 µM) it was 0.247. In addition, the relative viability in the assay with Ispinesib + Vorinostat (first compound 0.003162 µM) came to 0.348; with Ispinesib + Vorinostat (first compound 0.01 µM) it was 0.343; with Ispinesib + Vorinostat (first compound 0.03162 µM), 0.195; with Ispinesib + Vorinostat (first compound 0.1 µM), 0.24; with Ispinesib + AZD7762 (first compound 0.001 µM), 0.358; in the assay with Ispinesib + AZD7762 (first compound 0.003162 µM), 0.552. The relative viability with Ispinesib + AZD7762 (first compound 0.01 µM) is 0.306; with Ispinesib + AZD7762 (first compound 0.03162 µM), 0.154; in the assay with Ispinesib + AZD7762 (first compound 0.1 µM), 0.185; with Linsitinib + Navitoclax (first compound 0.01 µM), 0.875; with Linsitinib + Navitoclax (first compound 0.03162 µM) it was 0.829; with Linsitinib + Navitoclax (first compound 0.1 µM) it was 0.759. Further, the relative viability was determined as 0.575 with Linsitinib + Navitoclax (first compound 0.3162 µM) and 0.531 with Linsitinib + Navitoclax (first compound 1 µM).

Values taken from the supplement of paper PMC10307832.
